# Laboratory results: the supplement of paper PMC10331698
# ± gives the standard deviation of the averaged measurements.
# Tests used:
# Test in all cases: level (log10 ratio to DMSO vehicle control); higher = higher biomarker level / cell amount than vehicle control
# [1] = compound: CCOC(=O)CC(=O)C(F)(F)C(F)(F)F [Ethyl pentafluoropropionyl acetate] (in DMSO)
# Procedure: (§1)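 BioMAP Diversity Plus panel of 12 human primary cell co-culture systems (3C, 4H, LPS, SAg, BT, BF4T, BE3C, CASM3C, HDF3CGF, KF3CT, MyoF, Mphg). Compounds were added 1 h before stimulation and left for 24 h (MyoF 48 h; BT 72 h for soluble read-outs or 6 d for IgG). Biomarkers were read by ELISA, cytotoxicity by SRB, PBMC viability and proliferation by Alamar Blue. Each well value was divided by the mean of 8 DMSO control wells on the same plate and log10 transformed; duplicate blinded samples were tested at 4 concentrations.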
# [2] = compound: NS(=O)(=O)C(F)(F)C(F)(F)C(F)(F)C(F)(F)C(F)(F)C(F)(F)C(F)(F)C(F)(F)F [Perfluorooctanesulfonamide] (in DMSO)
# Procedure: as §1
# [3] = compound: O=C(O)C(F)(F)C(F)(F)C(F)(F)C(F)(F)C(=O)O [Octafluoroadipic acid] (in DMSO)
# Procedure: as §1
# [4] = compound: O=C(O)C(F)(F)C(F)(F)C(F)(F)C(F)(F)C(F)(F)C(F)(F)C(F)(F)C(F)(F)F [Perfluorononanoic acid] (in DMSO)
# Procedure: as §1
# [5] = compound: O=C(O)C(F)(F)OC(F)(F)C(F)(F)OC(F)(F)C(F)(F)OC(F)(F)C(F)(F)C(F)(F)C(F)(F)F [Perfluoro-3,6,9-trioxatridecanoic acid] (in DMSO); conditions: 6700 nM
# Procedure: as §1
# [6] = compound: O=C(O)C(F)(OC(F)(F)C(F)(F)C(F)(F)F)C(F)(F)F [Ammonium perfluoro-2-methyl-3-oxahexanoate] (in Water)
# Procedure: as §1
# [7] = compound: O=C(O)CCC(F)(C(F)(F)F)C(F)(F)F [4,4-bis(Trifluoromethyl)-4-fluoropropanoic acid] (in DMSO)
# Procedure: as §1
# [8] = compound: O=S(=O)(O)CCC(F)(F)C(F)(F)C(F)(F)C(F)(F)C(F)(F)C(F)(F)C(F)(F)C(F)(F)F [8:2 Fluorotelomer sulfonic acid] (in DMSO)
# Procedure: as §1
Test System,level (log10) ([1]; 6700 nM),level (log10) ([1]; 20000 nM),level (log10) ([1]; 60000 nM),level (log10) ([2]; 6700 nM),level (log10) ([2]; 20000 nM),level (log10) ([3]; 6700 nM),level (log10) ([3]; 20000 nM),level (log10) ([3]; 60000 nM),level (log10) ([4]; 6700 nM),level (log10) ([4]; 20000 nM),level (log10) [5],level (log10) ([6]; 6700 nM),level (log10) ([6]; 20000 nM),level (log10) ([6]; 60000 nM),level (log10) ([7]; 6700 nM),level (log10) ([7]; 20000 nM),level (log10) ([7]; 60000 nM),level (log10) ([8]; 6700 nM),level (log10) ([8]; 20000 nM),level (log10) ([8]; 60000 nM)
BF4T:SRB,-0.004,-0.0045 ± 0.0035,-0.002 ± 0.0057,-0.009 ± 0.0028,-0.052,-0.0145 ± 0.0064,-0.011 ± 0.0071,-0.0065 ± 0.0035,-0.002 ± 0.0014,-0.028 ± 0.0014,-0.038 ± 0.013,-0.003 ± 0.013,0 ± 0.0014,0.0135 ± 0.022,0.0065 ± 0.015,0.0015 ± 0.021,0.02 ± 0.014,0.0035 ± 0.015,-0.002 ± 0.013,-0.0005 ± 0.0078
4H:CD87/uPAR,-0.0055 ± 0.0064,-0.0585 ± 0.07,-0.0565 ± 0.13,0.0155 ± 0.0064,-0.026 ± 0.028,0.04 ± 0.0071,0.039 ± 0.011,0.0345 ± 0.0064,-0.0245 ± 0.026,-0.012 ± 0.0071,0.0145 ± 0.03,-0.033 ± 0.027,-0.024 ± 0.033,-0.06 ± 0.0014,-0.0095 ± 0.056,0.0235 ± 0.035,0.0275 ± 0.067,0.026 ± 0.0028,-0.01 ± 0.023,-0.0345 ± 0.015
3C:CXCL8/IL-8,-0.0105 ± 0.0092,-0.006 ± 0.0071,0.022 ± 0.031,0.012 ± 0.018,0.0635 ± 0.0064,0.001 ± 0.024,-0.0095 ± 0.005,0.0215 ± 0.025,0.0175 ± 0.0021,0.0475 ± 0.013,-0.003 ± 0.027,0.038 ± 0.037,0.0745 ± 0.029,0.131 ± 0.014,0.0215 ± 0.039,0.014 ± 0.055,0.0285 ± 0.054,-0.0005 ± 0.13,0.012 ± 0.057,0.079 ± 0.024
3C:SRB,0.006 ± 0.0085,0.007 ± 0.0085,0.01 ± 0.034,0.0135 ± 0.022,-0.088 ± 0.0042,-0.007 ± 0.016,-0.0045 ± 0.011,-0.016 ± 0.0028,-0.002 ± 0.0042,-0.003,-0.002 ± 0.014,-0.019 ± 0.011,-0.021 ± 0.0042,-0.045,-0.001 ± 0.0057,0.0045 ± 0.019,0.0125 ± 0.0078,-0.017 ± 0.0057,-0.019 ± 0.018,-0.0705 ± 0.028
4H:SRB,0.0055 ± 0.005,0.0045 ± 0.012,0.0015 ± 0.028,-0.005 ± 0.011,-0.0815 ± 0.0021,-0.002 ± 0.013,0.0025 ± 0.00071,-0.0105 ± 0.0035,0.002 ± 0.0014,-0.008 ± 0.0042,0.0035 ± 0.0092,-0.0075 ± 0.012,-0.018 ± 0.014,-0.0115 ± 0.005,-0.008,-0.0125 ± 0.011,0.014 ± 0.02,-0.012 ± 0.0014,-0.0135 ± 0.012,-0.018 ± 0.033
LPS:CD141/Thrombomodulin,0.0635 ± 0.016,0.0625 ± 0.012,0.077 ± 0.055,0.037 ± 0.072,0.0785 ± 0.066,-0.014 ± 0.0014,-0.0135 ± 0.028,0.006 ± 0.014,-0.018 ± 0.048,-0.018 ± 0.017,-0.015 ± 0.0028,-0.013 ± 0.031,-0.0025 ± 0.0092,-0.036 ± 0.028,-0.0025 ± 0.0035,-0.009 ± 0.028,-0.002 ± 0.0099,0.007 ± 0.11,0.0505 ± 0.071,0.205 ± 0.016
SAg:CD38,-0.0055 ± 0.049,0.019 ± 0.045,-0.0175 ± 0.0021,-0.006 ± 0.0071,-0.089 ± 0.016,-0.0415 ± 0.023,-0.026 ± 0.017,-0.0265 ± 0.0021,0.0155 ± 0.069,0.0205 ± 0.056,0.0175 ± 0.026,0.003 ± 0.011,0.008 ± 0.0085,-0.0055 ± 0.019,-0.02 ± 0.047,-0.008 ± 0.013,-0.0025 ± 0.019,-0.0175 ± 0.04,-0.02 ± 0.034,-0.0595 ± 0.053
SAg:CXCL9/MIG,-0.001 ± 0.011,-0.015 ± 0.0099,0.0065 ± 0.0021,-0.002 ± 0.0042,-0.0055 ± 0.011,-0.0075 ± 0.016,0.005 ± 0.0028,0.011 ± 0.0057,0.005 ± 0.017,-0.004 ± 0.013,-0.001 ± 0.0014,-0.006 ± 0.0085,0.001 ± 0.014,0.001 ± 0.028,0.0015 ± 0.0064,0.008 ± 0.0042,0.0035 ± 0.00071,0.0005 ± 0.018,-0.008 ± 0.0028,0.001 ± 0.0057
LPS:M-CSF,-0.021 ± 0.011,0.0085 ± 0.019,0.012 ± 0.088,-0.0035 ± 0.032,0.05 ± 0.04,0.002 ± 0.0099,0.0175 ± 0.023,0.0005 ± 0.00071,-0.001 ± 0.045,0.035 ± 0.024,0.009 ± 0.018,-0.02 ± 0.024,-0.009 ± 0.016,-0.0045 ± 0.005,-0.0345 ± 0.0021,-0.0145 ± 0.029,-0.0245 ± 0.00071,-0.016 ± 0.041,0.0075 ± 0.054,-0.0795 ± 0.088
BE3C:CD54/ICAM-1,0.0175 ± 0.011,0.0185 ± 0.018,0.006 ± 0.0042,-0.008 ± 0.016,-0.001 ± 0.018,-0.0085 ± 0.0078,-0.0045 ± 0.013,0.01 ± 0.031,-0.004 ± 0.034,0.0095 ± 0.0035,-0.688 ± 0.018,-0.007 ± 0.0057,-0.0025 ± 0.0035,-0.016,-0.007,-0.019 ± 0.014,-0.002 ± 0.0099,0.0215 ± 0.018,0.013 ± 0.0042,-0.02 ± 0.014
4H:VEGFR2,-0.0375 ± 0.036,-0.0265 ± 0.06,-0.022 ± 0.15,-0.0175 ± 0.035,-0.006 ± 0.044,0.0205 ± 0.029,0.0085 ± 0.05,0.0155 ± 0.042,-0.0565 ± 0.039,-0.033 ± 0.0099,-0.0515 ± 0.047,0.0035 ± 0.04,0.007 ± 0.014,0.0095 ± 0.018,0.0265 ± 0.054,0.0195 ± 0.044,0.03 ± 0.045,-0.0345 ± 0.12,0.003 ± 0.0014,-0.026 ± 0.0028
4H:CD62P/P-selectin,0.005,-0.012 ± 0.038,0.009 ± 0.013,0.028 ± 0.014,-0.0235 ± 0.018,-0.0075 ± 0.043,0.0065 ± 0.042,-0.007 ± 0.059,0.015 ± 0.0099,0.0605 ± 0.011,0.033 ± 0.023,-0.0475 ± 0.012,-0.0065 ± 0.03,-0.054 ± 0.048,-0.0155 ± 0.022,-0.032 ± 0.031,0.005 ± 0.086,-0.0315 ± 0.09,-0.034 ± 0.099,-0.015 ± 0.071
SAg:CD62E/E-Selectin,-0.0005 ± 0.018,-0.006 ± 0.0028,0.004 ± 0.033,-0.0165 ± 0.00071,-0.0845 ± 0.015,-0.0095 ± 0.077,0.0125 ± 0.053,0.0285 ± 0.029,-0.01 ± 0.03,0.0315 ± 0.039,-0.019 ± 0.057,0.036 ± 0.0014,0.022 ± 0.013,0.057 ± 0.0028,-0.011 ± 0.011,-0.0025 ± 0.021,-0.013 ± 0.0028,0.0085 ± 0.042,0.0465 ± 0.013,0.109 ± 0.0042
LPS:CD62E/E-Selectin,0.015 ± 0.0085,0.0055 ± 0.018,0.0095 ± 0.039,-0.015 ± 0.023,0.018 ± 0.016,0.002 ± 0.023,-0.008 ± 0.0057,0.0085 ± 0.022,-0.009 ± 0.013,-0.01 ± 0.0085,-0.024 ± 0.0057,-0.0115 ± 0.0078,-0.005 ± 0.016,-0.004 ± 0.0085,0.0115 ± 0.023,0.0055 ± 0.013,-0.007 ± 0.016,0.0235 ± 0.06,0.033 ± 0.02,0.082 ± 0.025
